Data on 30 compounds can be found in patent US20090048258A1, “Amide Compound” (priority 2005, published 2009).

Structures are written as SMILES.

For this test, the target named is T1, Human DGAT1 (Homo sapiens, UniProt O75907).
T1 construct: my translation of the primer: M-G-DYKDDDD-GDRGSSRRR) (N); made in house; host or cells: Sf9 insect cells (recombinant baculovirus BAC-DGAT1, pFASTBAC1); microsome fraction
T1 sequence (O75907 1-488): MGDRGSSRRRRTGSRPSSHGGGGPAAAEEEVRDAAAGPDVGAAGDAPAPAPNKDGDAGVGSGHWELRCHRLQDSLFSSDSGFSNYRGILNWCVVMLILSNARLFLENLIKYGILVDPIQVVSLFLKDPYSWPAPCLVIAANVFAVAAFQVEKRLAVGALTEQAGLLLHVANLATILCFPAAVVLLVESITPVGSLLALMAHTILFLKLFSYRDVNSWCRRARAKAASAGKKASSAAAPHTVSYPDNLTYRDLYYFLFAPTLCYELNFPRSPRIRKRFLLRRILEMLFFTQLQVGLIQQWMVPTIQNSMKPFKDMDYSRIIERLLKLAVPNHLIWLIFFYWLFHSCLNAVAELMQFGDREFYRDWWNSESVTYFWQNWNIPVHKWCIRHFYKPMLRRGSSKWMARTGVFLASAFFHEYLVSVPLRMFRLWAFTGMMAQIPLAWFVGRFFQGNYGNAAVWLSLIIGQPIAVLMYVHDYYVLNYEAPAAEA
Put plainly: DGAT inhibitory activity: [14C]-triglyceride synthesis by DGAT1 high expression Sf9 microsome. Type of test: biochemical. The following applies: Table 2, 25 μM dioleoylglycerol, 25 μM [14C]-Oleoyl-CoA, 32° C., 15 min, read-out: DGAT inhibitory activity (according to IC50). The procedure, abridged: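 DGAT1 was overexpressed from recombinant baculovirus in Sf9 cells, and microsomes from these cells were the enzyme source. Reactions ran in 100 mM Tris-HCl pH 7.5, 250 mM sucrose, 150 mM MgCl2 and 0.01% BSA. [14C]-triglyceride was extracted into chloroform, separated by TLC and quantified by imaging plate, with inhibition calculated against control and blank (no microsome) counts.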
As a reminder, the IC50 is the point on the concentration scale where inhibition reaches its midpoint. With `CCOc1ccc(C(=O)CCC(=O)Nc2cc(-c3cccn3C(=O)OC(C)(C)C)cc(-c3ccccc3)n2)cc1OCC` [Example 118, tert-butyl 2-(2-{[4-(3,4-diethoxyphenyl)-4-oxobutanoyl]amino}-6-phenylpyridin-4-yl)-1H-pyrrole-1-carboxylate], the IC50 is 0.5 to 10 µM.

Turning to `CCOc1ccc(C(=O)CCC(=O)Nc2cc(-c3cnn(C)c3)cc(-c3ccccc3)n2)cc1OCC` [Example 119, 4-(3,4-diethoxyphenyl)-N-[4-(1-methyl-1H-pyrazol-4-yl)-6-phenylpyridin-2-yl]-4-oxobutanamide], the IC50 was 0.05 to 0.5 µM.

Take `CCOc1ccc(C(=O)CCC(=O)Nc2cc(-c3ccc4c(c3)OCO4)cc(-c3ccccc3)n2)cc1OCC` [Example 120, N-[4-(1,3-benzodioxol-5-yl)-6-phenylpyridin-2-yl]-4-(3,4-diethoxyphenyl)-4-oxobutanamide]: the IC50 lay within 0.05 to 0.5 µM.

Consider `CCOc1ccc(C(=O)CCC(=O)Nc2cc(-c3ccc4[nH]ccc4c3)cc(-c3ccccc3)n2)cc1OCC` [Example 121, 4-(3,4-diethoxyphenyl)-N-[4-(1H-indol-5-yl)-6-phenylpyridin-2-yl]-4-oxobutanamide], for which the IC50 was no more than 0.01 µM.

On to `CCOc1ccc(C(=O)CCC(=O)Nc2cc(-c3ccc(C#N)cc3)cc(-c3ccccc3)n2)cc1OCC` [Example 122, N-[4-(4-cyanophenyl)-6-phenylpyridin-2-yl]-4-(3,4-diethoxyphenyl)-4-oxobutanamide], for which the IC50 was in the range of 0.05 to 0.5 µM.

Consider `CCOc1ccc(C(=O)CCC(=O)Nc2cc(-c3ccc(O)cc3)cc(-c3ccccc3)n2)cc1OCC` [Example 123, 4-(3,4-diethoxyphenyl)-N-[4-(4-hydroxyphenyl)-6-phenylpyridin-2-yl]-4-oxobutanamide], for which the IC50 is no more than 0.01 µM.

In the case of `CCOc1ccc(C(=O)CCC(=O)Nc2cc(-c3ccc(CO)cc3)cc(-c3ccccc3)n2)cc1OCC` [Example 124, 4-(3,4-diethoxyphenyl)-N-{4-[4-(hydroxymethyl)phenyl]-6-phenylpyridin-2-yl}-4-oxobutanamide], the IC50 was 0.01 to 0.05 µM.

As for `CCOc1ccc(C(=O)CCC(=O)Nc2cc(-c3ccc(CCC(=O)O)cc3)cc(-c3ccccc3)n2)cc1OCC` [Example 125, 3-[4-(2-{[4-(3,4-diethoxyphenyl)-4-oxobutanoyl]amino}-6-phenylpyridin-4-yl)phenyl]propanoic acid], the IC50 is 0.5 to 10 µM.

In the case of `CCOc1ccc(C(=O)CCC(=O)Nc2cc(-c3ccc(CCC(=O)OC)cc3)cc(-c3ccccc3)n2)cc1OCC` [Example 126, methyl 3-[4-(2-{[4-(3,4-diethoxyphenyl)-4-oxobutanoyl]amino}-6-phenylpyridin-4-yl)phenyl]propanoate], the IC50 lay within 0.05 to 0.5 µM.

Consider `CCOc1ccc(C(=O)CCC(=O)Nc2cc(-c3ccc(/C=C/C(=O)OC)cc3)cc(-c3ccccc3)n2)cc1OCC` [Example 127, methyl (2E)-3-[4-(2-{[4-(3,4-diethoxyphenyl)-4-oxobutanoyl]amino}-6-phenylpyridin-4-yl)phenyl]acrylate], for which the IC50 fell in the range of 0.5 to 10 µM.

Consider `CCOc1ccc(C(=O)CCC(=O)Nc2cc(-c3ccc(C(N)=O)cc3)cc(-c3ccccc3)n2)cc1OCC` [Example 128, 4-(2-{[4-(3,4-diethoxyphenyl)-4-oxobutanoyl]amino}-6-phenylpyridin-4-yl)benzamide], for which the IC50 fell in the range of 0.01 to 0.05 µM.

`CCOc1ccc(C(=O)CCC(=O)Nc2cc(-c3ccc(N4CCOCC4)cc3)cc(-c3ccccc3)n2)cc1OCC` [Example 129, 4-(3,4-diethoxyphenyl)-N-[4-(4-(morpholin-4-yl)phenyl)-6-phenylpyridin-2-yl]-4-oxobutanamide]: the IC50 fell in the range of 0.5 to 10 µM.

In the case of `CCOc1ccc(C(=O)CCC(=O)Nc2cc(-c3ccc(CN4CCOCC4)cc3)cc(-c3ccccc3)n2)cc1OCC` [Example 130, 4-(3,4-diethoxyphenyl)-N-{4-[4-(morpholin-4-ylmethyl)phenyl]-6-phenylpyridin-2-yl}-4-oxobutanamide], the IC50 was 0.5 to 10 µM.

Regarding `CCOc1ccc(C(=O)CCC(=O)Nc2cc(-c3ccc(N(C)C)cc3)cc(-c3ccccc3)n2)cc1OCC` [Example 131, 4-(3,4-diethoxyphenyl)-N-{4-[4-(dimethylamino)phenyl]-6-phenylpyridin-2-yl}-4-oxobutanamide], the IC50 was 0.05 to 0.5 µM.

As to `CCOc1ccc(C(=O)CCC(=O)Nc2cc(-c3cccc(C#N)c3)cc(-c3ccccc3)n2)cc1OCC` [Example 132, N-[4-(3-cyanophenyl)-6-phenylpyridin-2-yl]-4-(3,4-diethoxyphenyl)-4-oxobutanamide], the IC50 was in the range of 0.05 to 0.5 µM.

As for `CCOc1ccc(C(=O)CCC(=O)Nc2cc(-c3cccc(CC#N)c3)cc(-c3ccccc3)n2)cc1OCC` [Example 133, N-{4-[3-(cyanomethyl)phenyl]-6-phenylpyridin-2-yl}-4-(3,4-diethoxyphenyl)-4-oxobutanamide], the IC50 was 0.01 to 0.05 µM.

Turning to `CCOc1ccc(C(=O)CCC(=O)Nc2cc(-c3cccc(O)c3)cc(-c3ccccc3)n2)cc1OCC` [Example 134, 4-(3,4-diethoxyphenyl)-N-[4-(3-hydroxyphenyl)-6-phenylpyridin-2-yl]-4-oxobutanamide], the IC50 was 0.01 to 0.05 µM.

Take `CCCCOc1cccc(-c2cc(NC(=O)CCC(=O)c3ccc(OCC)c(OCC)c3)nc(-c3ccccc3)c2)c1` [Example 135, N-[4-(3-butoxyphenyl)-6-phenylpyridin-2-yl]-4-(3,4-diethoxyphenyl)-4-oxobutanamide]: the IC50 fell in the range of 0.5 to 10 µM.

On to `CCOc1ccc(C(=O)CCC(=O)Nc2cc(-c3cccc(CO)c3)cc(-c3ccccc3)n2)cc1OCC` [Example 136, 4-(3,4-diethoxyphenyl)-N-{4-[3-(hydroxymethyl)phenyl]-6-phenylpyridin-2-yl}-4-oxobutanamide], for which the IC50 lay within 0.05 to 0.5 µM.

Take `CCOc1ccc(C(=O)CCC(=O)Nc2cc(-c3cccc(CCCO)c3)cc(-c3ccccc3)n2)cc1OCC` [Example 137, 4-(3,4-diethoxyphenyl)-N-{4-[3-(3-hydroxypropyl)phenyl]-6-phenylpyridin-2-yl}-4-oxobutanamide]: the IC50 was 0.05 to 0.5 µM.

As to `CCOc1ccc(C(=O)CCC(=O)Nc2cc(-c3cccc(C(=O)O)c3)cc(-c3ccccc3)n2)cc1OCC` [Example 138, 3-(2-{[4-(3,4-diethoxyphenyl)-4-oxobutanoyl]amino}-6-phenylpyridin-4-yl)benzoic acid], the IC50 fell in the range of 0.5 to 10 µM.

On to `CCOc1ccc(C(=O)CCC(=O)Nc2cc(-c3cccc(C(=O)OC)c3)cc(-c3ccccc3)n2)cc1OCC` [Example 139, methyl 3-(2-{[4-(3,4-diethoxyphenyl)-4-oxobutanoyl]amino}-6-phenylpyridin-4-yl)benzoate], for which the IC50 fell in the range of 0.5 to 10 µM.

Take `CCOc1ccc(C(=O)CCC(=O)Nc2cc(-c3cccc(C(C)=O)c3)cc(-c3ccccc3)n2)cc1OCC` [Example 140, N-[4-(3-acetylphenyl)-6-phenylpyridin-2-yl]-4-(3,4-diethoxyphenyl)-4-oxobutanamide]: the IC50 was in the range of 0.05 to 0.5 µM.

As for `CCOc1ccc(C(=O)CCC(=O)Nc2cc(-c3cccc(CCC(=O)O)c3)cc(-c3ccccc3)n2)cc1OCC` [Example 141, 3-[3-(2-{[4-(3,4-diethoxyphenyl)-4-oxobutanoyl]amino}-6-phenylpyridin-4-yl)phenyl]propanoic acid], the IC50 is 0.5 to 10 µM.

With `CCOc1ccc(C(=O)CCC(=O)Nc2cc(-c3cccc(CCC(=O)OC)c3)cc(-c3ccccc3)n2)cc1OCC` [Example 142, methyl 3-[3-(2-{[4-(3,4-diethoxyphenyl)-4-oxobutanoyl]amino}-6-phenylpyridin-4-yl)phenyl]propanoate], the IC50 lay within 0.05 to 0.5 µM.

For the compound `CCOc1ccc(C(=O)CCC(=O)Nc2cc(-c3cccc(OC(F)(F)F)c3)cc(-c3ccccc3)n2)cc1OCC` [Example 143, 4-(3,4-diethoxyphenyl)-4-oxo-N-{6-phenyl-4-[3-(trifluoromethoxy)phenyl]pyridin-2-yl}butanamide], the IC50 was 0.05 to 0.5 µM.

For `CCOc1ccc(C(=O)CCC(=O)Nc2cc(-c3ccccc3C#N)cc(-c3ccccc3)n2)cc1OCC` [Example 144, N-[4-(2-cyanophenyl)-6-phenylpyridin-2-yl]-4-(3,4-diethoxyphenyl)-4-oxobutanamide], the IC50 was no more than 0.01 µM.

For the compound `CCOc1ccc(C(=O)CCC(=O)Nc2cc(-c3ccccc3O)cc(-c3ccccc3)n2)cc1OCC` [Example 145, 4-(3,4-diethoxyphenyl)-N-[4-(2-hydroxyphenyl)-6-phenylpyridin-2-yl]-4-oxobutanamide], the IC50 was no more than 0.01 µM.

Take `CCOc1ccc(C(=O)CCC(=O)Nc2cc(-c3ccccc3OC)cc(-c3ccccc3)n2)cc1OCC` [Example 146, 4-(3,4-diethoxyphenyl)-N-[4-(2-methoxyphenyl)-6-phenylpyridin-2-yl]-4-oxobutanamide]: the IC50 was no more than 0.01 µM.

On to `CCOc1ccc(C(=O)CCC(=O)Nc2cc(-c3ccccc3CO)cc(-c3ccccc3)n2)cc1OCC` [Example 147, 4-(3,4-diethoxyphenyl)-N-{4-[2-(hydroxymethyl)phenyl]-6-phenylpyridin-2-yl}-4-oxobutanamide], for which the IC50 was no more than 0.01 µM.
